The supplement of paper PMC10307832

How the values were obtained:
Assay in all cases: relative viability (nuclei count vs DMSO), 5 days (fraction); higher = more cells survive
EHT 1864 + Linsitinib = compound: C1COCCN1CC2=CC(=O)C(=CO2)OCCCCCSC3=C4C=CC(=CC4=NC=C3)C(F)(F)F [EHT 1864] + C[C@]1(O)C[C@@H](c2nc(-c3ccc4ccc(-c5ccccc5)nc4c3)c3c(N)nccn32)C1 [Linsitinib] (partner 1 µM)
In short: (§1)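 One day after seeding in 1536-well plates, lung cancer cell lines were dosed by pin tool. Dosing was either single-drug or a fixed anchor-drug dose plus five library-drug doses (not always all listed) in √10 steps. After 5 days, nuclei were stained in one fix-and-stain step and counted on 4× images, and relative viability is the nuclei count of treated wells over that of vehicle wells, given as the median of duplicate plates.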

EHT 1864 + Olaparib = compound: C1COCCN1CC2=CC(=O)C(=CO2)OCCCCCSC3=C4C=CC(=CC4=NC=C3)C(F)(F)F [EHT 1864] + O=C(c1cc(Cc2n[nH]c(=O)c3ccccc23)ccc1F)N1CCN(C(=O)C2CC2)CC1 [Olaparib] (partner 8 µM)
In short: as §1

EHT 1864 + Pemetrexed = compound: C1COCCN1CC2=CC(=O)C(=CO2)OCCCCCSC3=C4C=CC(=CC4=NC=C3)C(F)(F)F [EHT 1864] + Nc1nc2[nH]cc(CCc3ccc(C(=O)N[C@@H](CCC(=O)O)C(=O)O)cc3)c2c(=O)[nH]1 [Pemetrexed] (partner 0.2 µM)
In short: as §1

EHT 1864 + Vorinostat = compound: C1COCCN1CC2=CC(=O)C(=CO2)OCCCCCSC3=C4C=CC(=CC4=NC=C3)C(F)(F)F [EHT 1864] + O=C(CCCCCCC(=O)Nc1ccccc1)NO [Vorinostat] (partner 1 µM)
In short: as §1

Cell Line	relative viability (EHT 1864 + Linsitinib; first compound 0.04 µM)	relative viability (EHT 1864 + Linsitinib; first compound 0.1265 µM)	relative viability (EHT 1864 + Linsitinib; first compound 0.4 µM)	relative viability (EHT 1864 + Linsitinib; first compound 1.265 µM)	relative viability (EHT 1864 + Linsitinib; first compound 4 µM)	relative viability (EHT 1864 + Olaparib; first compound 0.04 µM)	relative viability (EHT 1864 + Olaparib; first compound 0.1265 µM)	relative viability (EHT 1864 + Olaparib; first compound 0.4 µM)	relative viability (EHT 1864 + Olaparib; first compound 1.265 µM)	relative viability (EHT 1864 + Olaparib; first compound 4 µM)	relative viability (EHT 1864 + Pemetrexed; first compound 0.04 µM)	relative viability (EHT 1864 + Pemetrexed; first compound 0.1265 µM)	relative viability (EHT 1864 + Pemetrexed; first compound 0.4 µM)	relative viability (EHT 1864 + Pemetrexed; first compound 1.265 µM)	relative viability (EHT 1864 + Pemetrexed; first compound 4 µM)	relative viability (EHT 1864 + Vorinostat; first compound 0.04 µM)	relative viability (EHT 1864 + Vorinostat; first compound 0.1265 µM)	relative viability (EHT 1864 + Vorinostat; first compound 0.4 µM)	relative viability (EHT 1864 + Vorinostat; first compound 1.265 µM)	relative viability (EHT 1864 + Vorinostat; first compound 4 µM)
EBC-1	0.883	0.426	0.914	0.896	0.99	0.74	0.689	0.671	0.696	0.574	–	–	–	–	–	–	–	–	–	–
EKVX	0.886	0.976	1.04	1.08	1.02	0.741	0.823	0.806	0.83	0.788	0.362	0.381	0.404	0.34	0.495	0.749	0.524	0.69	0.743	0.631
EMC-BAC-2	0.803	0.757	0.792	0.815	0.784	0.616	0.467	0.436	0.464	0.458	0.454	0.421	0.491	0.439	0.432	0.45	0.383	0.503	0.427	0.504
EPLC-272H	1.4	1.16	1.04	1.32	1.25	0.741	0.672	0.788	0.642	0.611	0.317	0.332	0.317	0.365	0.356	0.454	0.565	0.567	0.662	0.33
H3255	0.934	0.848	1.04	1	0.898	0.56	0.537	0.573	0.55	0.569	0.532	0.603	0.576	0.572	0.561	0.752	0.717	–	0.851	0.794
HARA	0.963	0.928	1.08	0.983	1.01	0.872	–	0.967	0.876	0.761	0.27	–	0.267	0.3	0.234	0.514	0.366	0.715	0.582	0.229
HCC-15	0.877	0.827	0.888	0.86	0.922	0.717	–	0.678	0.685	0.706	0.224	–	0.24	0.226	0.218	0.77	–	0.838	0.81	0.929
HCC-44	0.692	0.58	0.598	0.642	0.621	1.04	0.896	1.01	0.92	1.02	0.603	0.594	0.618	0.674	0.674	1.08	0.984	1.06	1.08	1.13
HCC-78	0.555	0.452	0.394	0.486	0.809	0.781	0.887	0.773	0.868	0.92	0.868	0.866	0.823	0.889	0.937	0.377	0.429	0.421	0.429	0.467
